Experimental data: article PMC11288027, “Exploring novel microbial metabolites and drugs for inhibiting Clostridioides difficile” (mSphere, 2024)
Converted amounts (≈) assume the structure as drawn. Where two headings read alike, the source gives them in different places.

How the values were obtained:
[1] = system: C. difficile clinical isolates; assay: MIC against a panel of 20 C. difficile clinical isolates (broth microdilution); format: cell-based, Clostridioides difficile; conditions: for MIC50: concentration that inhibited 50% of the 20 C. difficile clinical isolates; for MIC90: concentration that inhibited 90% of the 20 C. difficile clinical isolates; for MIC: read-out: minimum inhibitory concentration (MIC)
[2] = system: B. fragilis; assay: MIC against human gut microbiota; format: cell-based, Bacteroides fragilis; conditions: anaerobic; for MIC: Bacteroides fragilis, read-out: minimum inhibitory concentration (MIC)
[3] = system: B. dorei; assay: MIC against human gut microbiota; format: cell-based, Bacteroides dorei; conditions: B. dorei HM- 719, BHIS broth, anaerobic
[4] = system: Bif. breve; assay: MIC against human gut microbiota; format: cell-based, Bifidobacterium breve; conditions: Bif. breve ATCC 15700, BHIS broth, anaerobic
[5] = system: Bif. angulatum; assay: MIC against human gut microbiota; format: cell-based, Bifidobacterium angulatum; conditions: Bif. angulatum HM- 1189, BHIS broth, anaerobic
[6] = system: Bif. adolescentis; assay: MIC against human gut microbiota; format: cell-based, Bifidobacterium adolescentis; conditions: Bif. adolescentis HM- 633, BHIS broth, anaerobic
[7] = system: Bif. longum; assay: MIC against human gut microbiota; format: cell-based, Bifidobacterium longum; conditions: anaerobic; for MIC: Bifidobacterium longum, read-out: minimum inhibitory concentration (MIC)
[8] = system: E. faecium; assay: MIC against human gut microbiota; format: cell-based, Enterococcus faecium; conditions: E. faecium HM-202, TSB, aerobic
[9] = system: E. fecalis; assay: MIC against human gut microbiota; format: cell-based, Enterococcus faecalis; conditions: E. fecalis HM-970, TSB, aerobic
[10] = system: L. casei; assay: MIC against human gut microbiota; format: cell-based; conditions: L. casei ATCC 334, MRS broth, 5% CO2
[11] = system: L. brevis; assay: MIC against human gut microbiota; format: cell-based, Lactobacillus brevis; conditions: L. brevis ATCC-14864, MRS broth, 5% CO2
[12] = system: L. rhamanosus; assay: MIC against human gut microbiota; format: cell-based, Lactobacillus rhamnoosus; conditions: L. rhamanosus ATCC-53103, MRS broth, 5% CO2
[13] = system: mycobacteria; set-up: method as in PMID 33916775; conditions: cited from earlier work
[14] = system: C. difficile ATCC BAA-1870; assay: MIC of active hits by broth microdilution; conditions: C. difficile ATCC BAA-1870, 48 h anaerobic
[15] = system: Bifidobacterium species; assay: MIC against human gut microbiota, summary in text; format: cell-based; conditions: summary over the Bifidobacterium strains of Table 4
[16] = B. fragilis HM- 709, BHIS broth
[17] = B. fragilis HM- 718, BHIS broth
[18] = Bif. longum HM- 845, BHIS broth
[19] = Bif. longum HM- 846, BHIS broth
[20] = Bif. longum HM- 847, BHIS broth
[21] = Bif. longum HM- 848, BHIS broth

For Milbemycin oxime, the “minimum inhibitory concentration (MIC)” value ([1]; C. difficile ATCC 630) was 4 µg/mL, the “minimum inhibitory concentration (MIC)” value ([1]; C. difficile ATCC 43255) was 4 µg/mL and the “minimum inhibitory concentration (MIC)” value ([1]; C. difficile ATCC BAA-1870 (Ribotype-027), purchased compounds, panel test) was 8 µg/mL. For the same compound, the “minimum inhibitory concentration (MIC)” value ([1]; C. difficile CD-1 (Ribotype-027)) was 4 µg/mL, the “minimum inhibitory concentration (MIC)” value ([1]; C. difficile CD-6 (Ribotype-027)) was 4 µg/mL and the “minimum inhibitory concentration (MIC)” value ([1]; C. difficile CD-10(Ribotype-027)) was 4 µg/mL. The “minimum inhibitory concentration (MIC)” value ([1]; C. difficile CD-12) was 4 µg/mL, the “minimum inhibitory concentration (MIC)” value ([1]; C. difficile CD-13) was 8 µg/mL and the “minimum inhibitory concentration (MIC)” value ([1]; C. difficile CD-15) was 4 µg/mL. The “minimum inhibitory concentration (MIC)” value ([1]; C. difficile CD-22) was 8 µg/mL, the “minimum inhibitory concentration (MIC)” value ([1]; C. difficile CD-23) was 4 µg/mL and the “minimum inhibitory concentration (MIC)” value ([1]; C. difficile CD-24) was 4 µg/mL. The “minimum inhibitory concentration (MIC)” value ([1]; C. difficile CD-26 (Ribotype-027)) was 4 µg/mL, the “minimum inhibitory concentration (MIC)” value ([1]; C. difficile CD-28) was 8 µg/mL and the “minimum inhibitory concentration (MIC)” value ([1]; C. difficile CD-29 (Ribotype-027)) was 4 µg/mL. The “minimum inhibitory concentration (MIC)” value ([1]; C. difficile CD-30) was 4 µg/mL, the “minimum inhibitory concentration (MIC)” value ([1]; C. difficile NR-49302) was 4 µg/mL and the “minimum inhibitory concentration (MIC)” value ([1]; C. difficile NR-49304) was 8 µg/mL. For the same compound, the “minimum inhibitory concentration (MIC)” value ([1]; C. difficile NR-49308) was 4 µg/mL, the “minimum inhibitory concentration (MIC)” value ([1]; C. difficile NR-49319) was 8 µg/mL and the MIC50 [1] was 4 µg/mL. For the same compound, the MIC90 [1] was 8 µg/mL, the “minimum inhibitory concentration (MIC)” value [2, 16] was 32 µg/mL and the “minimum inhibitory concentration (MIC)” value [2, 17] was >256 µg/mL. The “minimum inhibitory concentration (MIC)” value [3] was >256 µg/mL, the “minimum inhibitory concentration (MIC)” value [4] was 4 µg/mL and the “minimum inhibitory concentration (MIC)” value [5] was 4 µg/mL. The “minimum inhibitory concentration (MIC)” value [6] was 4 µg/mL, the “minimum inhibitory concentration (MIC)” value [7, 18] was 8 µg/mL and the “minimum inhibitory concentration (MIC)” value [7, 19] was 8 µg/mL. The “minimum inhibitory concentration (MIC)” value [7, 20] was 8 µg/mL, the “minimum inhibitory concentration (MIC)” value [7, 21] was 8 µg/mL and the “minimum inhibitory concentration (MIC)” value [8] was 4 µg/mL. The “minimum inhibitory concentration (MIC)” value [9] was 8 µg/mL, the “minimum inhibitory concentration (MIC)” value [10] was >256 µg/mL and the “minimum inhibitory concentration (MIC)” value [11] was >256 µg/mL. For the same compound, the “minimum inhibitory concentration (MIC)” value [12] was >256 µg/mL, the “MIC (antimycobacterial activity)” value [13] was < 8 µg/mL and the “MIC (μM)” value [14] was 4 µM. The “MIC (μg/mL)” value [14] was 4.39 µg/mL.
With CCCCc1oc2ccc(NS(C)(=O)=O)cc2c1C(=O)c1ccc(OCCCN(CCCC)CCCC)cc1 [Dronedarone] the MIC50 ([1]; Clostridioides difficile, 48 h, read-out: MIC50) was 4 µg/mL (≈ 7.18 µM), the MIC ([1]; Clostridioides difficile, ATCC630, C. difficile ATCC 630) was 4 µg/mL (≈ 7.18 µM) and the MIC ([1]; Clostridioides difficile, ATCC43255, C. difficile ATCC 43255) was 4 µg/mL (≈ 7.18 µM). The MIC ([1]; Clostridioides difficile, ATCCBAA1870, C. difficile ATCC BAA-1870 (Ribotype-027), purchased compounds, panel test) was 4 µg/mL (≈ 7.18 µM), the MIC ([1]; Clostridioides difficile, C. difficile CD-1 (Ribotype-027)) was 4 µg/mL (≈ 7.18 µM) and the MIC ([1]; Clostridioides difficile, C. difficile CD-6 (Ribotype-027)) was 4 µg/mL (≈ 7.18 µM). It also gave an MIC ([1]; Clostridioides difficile, C. difficile CD-10(Ribotype-027)) of 4 µg/mL (≈ 7.18 µM), an MIC ([1]; Clostridioides difficile, C. difficile CD-12) of 4 µg/mL (≈ 7.18 µM) and an MIC ([1]; Clostridioides difficile, C. difficile CD-13) of 4 µg/mL (≈ 7.18 µM). It also gave an MIC ([1]; Clostridioides difficile, C. difficile CD-15) of 4 µg/mL (≈ 7.18 µM), an MIC ([1]; Clostridioides difficile, C. difficile CD-22) of 2 µg/mL (≈ 3.59 µM) and an MIC ([1]; Clostridioides difficile, C. difficile CD-23) of 8 µg/mL (≈ 14.4 µM). The MIC ([1]; Clostridioides difficile, C. difficile CD-24) was 2 µg/mL (≈ 3.59 µM), the MIC ([1]; Clostridioides difficile, C. difficile CD-26 (Ribotype-027)) was 4 µg/mL (≈ 7.18 µM) and the MIC ([1]; Clostridioides difficile, C. difficile CD-28) was 8 µg/mL (≈ 14.4 µM). It also gave an MIC ([1]; Clostridioides difficile, C. difficile CD-29 (Ribotype-027)) of 2 µg/mL (≈ 3.59 µM), an MIC ([1]; Clostridioides difficile, C. difficile CD-30) of 8 µg/mL (≈ 14.4 µM) and an MIC ([1]; Clostridioides difficile, C. difficile NR-49302) of 4 µg/mL (≈ 7.18 µM). It also gave an MIC ([1]; Clostridioides difficile, C. difficile NR-49304) of 2 µg/mL (≈ 3.59 µM), an MIC ([1]; Clostridioides difficile, C. difficile NR-49308) of 4 µg/mL (≈ 7.18 µM) and an MIC ([1]; Clostridioides difficile, C. difficile NR-49319) of 8 µg/mL (≈ 14.4 µM). It also gave an MIC50 ([1]; Clostridioides difficile, read-out: MIC50) of 4 µg/mL (≈ 7.18 µM), an MIC90 ([1]; Clostridioides difficile, read-out: MIC90) of 8 µg/mL (≈ 14.4 µM) and an MIC [2, 16] of 8 µg/mL (≈ 14.4 µM). For the same compound, the MIC [2, 17] was 8 µg/mL (≈ 14.4 µM), the MIC ([3]; Phocaeicola dorei, read-out: minimum inhibitory concentration (MIC)) was 8 µg/mL (≈ 14.4 µM) and the MIC ([4]; Bifidobacterium breve, ATCC15700, read-out: minimum inhibitory concentration (MIC)) was 8 µg/mL (≈ 14.4 µM). It also gave an MIC ([5]; Bifidobacterium angulatum, read-out: minimum inhibitory concentration (MIC)) of 8 µg/mL (≈ 14.4 µM), an MIC ([6]; Bifidobacterium adolescentis, read-out: minimum inhibitory concentration (MIC)) of 8 µg/mL (≈ 14.4 µM) and an MIC [7, 18] of 8 µg/mL (≈ 14.4 µM). It also gave an MIC [7, 19] of 8 µg/mL (≈ 14.4 µM), an MIC [7, 20] of 8 µg/mL (≈ 14.4 µM) and an MIC [7, 21] of 8 µg/mL (≈ 14.4 µM). The MIC ([8]; Enterococcus faecium, read-out: minimum inhibitory concentration (MIC)) was 8 µg/mL (≈ 14.4 µM), the MIC ([9]; Enterococcus faecalis, read-out: minimum inhibitory concentration (MIC)) was 4 µg/mL (≈ 7.18 µM) and the MIC ([10]; Lacticaseibacillus casei, ATCC334, read-out: minimum inhibitory concentration (MIC)) was 64 µg/mL (≈ 115 µM). It also gave an MIC ([11]; Levilactobacillus brevis, ATCC14864, read-out: minimum inhibitory concentration (MIC)) of 32 µg/mL (≈ 57.5 µM), an MIC ([12]; Lactobacillus, ATCC53103, read-out: minimum inhibitory concentration (MIC)) of 128 µg/mL (≈ 230 µM) and an MIC [15] of 2 to 8 µg/mL (≈ 3.59 to 14.4 µM). The “MIC (μM)” value [14] was 8 µM and the MIC ([14]; Clostridioides difficile, ATCCBAA1870, 48 h) was 4.45 µg/mL.
